# Laboratory results reported in patent US11415579B2, “Assay for measuring a rate of reaction between a target and a ligand candidate” (Imperial College Innovations Ltd., priority 2016, dated 2022).
# Assays:
# [1] = Kinetic thiol consumption assay with model thiol glutathione; assay type: physicochemical; parameters: Rate constant with glutathione (k(GSH)): unit not given here; conditions: for Rate constant with glutathione (k(GSH)): 500 μM ligand, 5 μM thiol, phosphate buffer pH 8; for Rate constant with Glutathione: Protein: Glutathione, cysteine position NA, in h-1
# Procedure, shortened: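 GSH 5 μM, degassed phosphate buffer pH 8, TCEP beads 2% v/v; acrylamide added; RT, 1 h; fluorescence ex/em 380/470 nm; normalized to DMSO/thiol control; k from first-order exponential decay fit.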
# [2] = biological target: T1, human cyclin-dependent kinase 2 (Cdk2) (Homo sapiens, UniProt P24941); experiment: Kinetic thiol consumption assay with wild type Cdk2 (C177); assay type: binding; parameters: key to Rate enhancement, Cdk2 WT: k(Cdk2) divided by k(model thiol); Rate constant with Cdk2 (k(Cdk2)): unit not given here; conditions: for Rate constant with Cdk2 (k(Cdk2)): 500 μM ligand, 5 μM thiol, phosphate buffer pH 8; for Rate enhancement, Cdk2 WT: no additional mutations; for Rate constant with Cdk2 WT: Protein: Cdk2, cysteine position WT, in h^-1; for k(Cdk2)/k(Cdk2_mut) rate enhancement: model thiol Cdk2[C177A, F80C, K278C]; for k(Cdk2)/k(GSH) rate enhancement: model thiol glutathione
# T1 construct: poly-histidine; made in house; host or cells: E. coli
# Procedure, shortened: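 Rate enhancement: first-order decay constant with Cdk2 over that with a model thiol. Thiols (5 μM, degassed phosphate buffer pH 8, immobilized TCEP) were incubated with acrylamides at room temperature, and thiol consumption followed by fluorescence at 380/470 nm, normalized to DMSO control. Cdk2 was His-tagged, E. coli-expressed, with one surface cysteine (C177).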
# Cdk2[C177A, F80C, K278C] = biological target: T2, Cdk2[C177A, F80C, K278C] (Homo sapiens, UniProt P24941, C177A/F80C/K278C); experiment: Kinetic thiol consumption assay with mutant Cdk2 as model thiol; assay type: binding; parameters: unit not given here; conditions: 500 μM ligand, 5 μM thiol, phosphate buffer pH 8
# T2 construct: poly-histidine; made in house; host or cells: E. coli
# Procedure, shortened: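 Model thiol: His-tagged human Cdk2 C177A/F80C/K278C (two engineered surface cysteines), E. coli-expressed, 5 μM in degassed phosphate buffer pH 8 with immobilized TCEP beads (2% v/v). Fluorescence (ex/em 380/470 nm) followed over time at room temperature, normalized to DMSO/thiol control. First-order decay fit gives rate constants.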
# Cdk2(C177A, F80C) = biological target: T3, Cdk2(C177A, F80C) (Homo sapiens, UniProt P24941, C177A/F80C); experiment: Kinetic thiol consumption assay with Cdk2 mutant F80C, incl. kobs versus concentration (Kd, k2); assay type: binding; parameters: key to Rate enhancement, Cdk2 F80C: Cdk2 rate constant divided by model-thiol rate constant; conditions: additional mutation C177A; for Rate constant with Cdk2 F80C: Protein: Cdk2, cysteine position F80C, in h^-1
# T3 construct: poly-histidine; made in house; host or cells: E. coli
# Procedure, shortened: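 His-tagged Cdk2(C177A/F80C) from E. coli or model thiol, 5 μM in degassed phosphate buffer pH 8 with TCEP beads, reacted with acrylamide ligands; fluorescence (ex/em 380/470 nm) normalized to DMSO control and fitted to first-order decay for kobs. Kd and k2 obtained from hyperbolic fit of kobs versus ligand concentration.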
# Cdk2(H71C) (C177A) = biological target: T4, Cdk2(H71C) (C177A) (Homo sapiens, UniProt P24941, C177A/H71C); experiment: Kinetic thiol consumption assay with Cdk2 mutant H71C; assay type: binding; parameters: key to Rate enhancement, Cdk2 H71C: rate constant with Cdk2 ÷ rate constant with model thiol (fold); conditions: additional mutation C177A; for Rate constant with Cdk2 H71C: Protein: Cdk2, cysteine position H71C, in h^-1
# T4 construct: poly-histidine; made in house; host or cells: E. coli
# Procedure, shortened: (§1)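 5 μM thiol, degassed phosphate pH 8, 2% v/v immobilized TCEP beads; 1 h RT; fluorescence ex 380/em 470 nm; normalized vs DMSO/thiol-only; first-order exponential decay fit → rate constant; Cdk2 k / model-thiol k = rate enhancement per acrylamide.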
# Cdk2(S276C) (C177A) = biological target: T5, Cdk2(S276C) (C177A) (Homo sapiens, UniProt P24941, C177A/S276C); experiment: Kinetic thiol consumption assay with Cdk2 mutant S276C; assay type: binding; parameters: key to Rate enhancement, Cdk2 S276C: rate constant with Cdk2 ÷ rate constant with model thiol (fold); conditions: additional mutation C177A; for Rate constant with Cdk2 S276C: Protein: Cdk2, cysteine position S276C, in h^-1
# T5 construct: poly-histidine; made in house; host or cells: E. coli
# Procedure, shortened: as §1
# Cdk2(N272C) (C177A) = biological target: T6, Cdk2(N272C) (C177A) (Homo sapiens, UniProt P24941, C177A/N272C); experiment: Kinetic thiol consumption assay with Cdk2 mutant N272C; assay type: binding; parameters: key to Rate enhancement, Cdk2 N272: rate constant with Cdk2 ÷ rate constant with model thiol (fold); conditions: for Rate enhancement, Cdk2 N272: Cdk2 N272, additional mutation C177A; for Rate constant with Cdk2 N272C: Protein: Cdk2, cysteine position N272C, additional mutation C177A, in h^-1
# T6 construct: poly-histidine; made in house; host or cells: E. coli
# Procedure, shortened: as §1
# Cdk2(T182C) (C177A) = biological target: T7, Cdk2(T182C) (C177A) (Homo sapiens, UniProt P24941, C177A/T182C); experiment: Kinetic thiol consumption assay with Cdk2 mutant T182C; assay type: binding; parameters: key to Rate enhancement, Cdk2 T182C: rate constant with Cdk2 ÷ rate constant with model thiol (fold); conditions: additional mutation C177A; for Rate constant with Cdk2 T182C: Protein: Cdk2, cysteine position T182C, in h^-1
# T7 construct: poly-histidine; made in house; host or cells: E. coli
# Procedure, shortened: as §1
# Cdk2(R122C) (C177A) = biological target: T8, Cdk2(R122C) (C177A) (Homo sapiens, UniProt P24941, C177A/R122C); experiment: Kinetic thiol consumption assay with Cdk2 mutant R122C; assay type: binding; parameters: key to Rate enhancement, Cdk2 R122C: rate constant with Cdk2 ÷ rate constant with model thiol (fold); conditions: additional mutation C177A; for Rate constant with Cdk2 R122C: Protein: Cdk2, cysteine position R122C, in h-1
# T8 construct: poly-histidine; made in house; host or cells: E. coli
# Procedure, shortened: as §1
# Cdk2(S181C) (C177A) = biological target: T9, Cdk2(S181C) (C177A) (Homo sapiens, UniProt P24941, C177A/S181C); experiment: Kinetic thiol consumption assay with Cdk2 mutant S181C; assay type: binding; parameters: key to Rate enhancement, Cdk2 S181C: rate constant with Cdk2 ÷ rate constant with model thiol (fold); conditions: additional mutation C177A; for Rate constant with Cdk2 S181C: Protein: Cdk2, cysteine position S181C, in h^-1
# T9 construct: poly-histidine; made in house; host or cells: E. coli
# Procedure, shortened: as §1
Structure (SMILES),Rate constant with glutathione (k(GSH)) [1],Rate constant with Glutathione [1],Rate constant with Cdk2 (k(Cdk2)) [2],"Rate enhancement, Cdk2 WT [2]",Rate constant with Cdk2 WT [2],k(Cdk2)/k(Cdk2_mut) rate enhancement [2],k(Cdk2)/k(GSH) rate enhancement [2],"Rate constant with Cdk2[C177A, F80C, K278C] (k(Cdk2_mut)) (Cdk2[C177A, F80C, K278C])","Rate enhancement, Cdk2 F80C (Cdk2(C177A, F80C))","Rate enhancement, Cdk2 H71C (Cdk2(H71C) (C177A))",Rate constant with Cdk2 H71C (Cdk2(H71C) (C177A)),"Rate enhancement, Cdk2 S276C (Cdk2(S276C) (C177A))",Rate constant with Cdk2 S276C (Cdk2(S276C) (C177A)),"Rate enhancement, Cdk2 N272 (Cdk2(N272C) (C177A))",Rate constant with Cdk2 N272C (Cdk2(N272C) (C177A)),"Rate enhancement, Cdk2 T182C (Cdk2(T182C) (C177A))",Rate constant with Cdk2 T182C (Cdk2(T182C) (C177A)),"Rate enhancement, Cdk2 R122C (Cdk2(R122C) (C177A))",Rate constant with Cdk2 R122C (Cdk2(R122C) (C177A)),"Rate enhancement, Cdk2 S181C (Cdk2(S181C) (C177A))",other results
C=CC(=O)N1CCCC(N2C(=O)CC3(CCCC3)C2=O)C1 (stereo not shown) [CA-236],0.00506,0.009189,0.00116,0.1258,0.001156,0.2924,0.2286,0.00395,0.4074,0.1903,0.001749,0.0707,0.0006497,0.09859,0.0009059,1.042,0.009576,0.2009,0.001846,0.2301,"Rate constant with Cdk2 F80C (Cdk2(C177A, F80C)): 0.003744; Rate constant with Cdk2 S181C (Cdk2(S181C) (C177A)): 0.002114"
C=CC(=O)NCC1CN(C2CC2)CCO1 (stereo not shown) [CA-038],0.0065,0.01131,0.00332,0.5218,0.005901,0.9623,0.5101,0.00345,0,0.8254,0.009335,0.5828,0.006591,0.592,0.006696,1.744,0.01973,0.3691,0.004175,0.4715,Rate constant with Cdk2 S181C (Cdk2(S181C) (C177A)): 0.005333
C=CC(=O)Nc1ccc(C(=O)c2ccccc2)cc1 [CA-219],0.06515,0.06668,0.2317,3.475,0.2317,0.3223,3.556,0.7188,17.8,0.5597,0.03732,1.204,0.08025,0.8368,0.0558,9.837,0.6559,0.1738,0.01159,0.5975,"Rate constant with Cdk2 F80C (Cdk2(C177A, F80C)): 1.187; Rate constant with Cdk2 S181C (Cdk2(S181C) (C177A)): 0.03984"
C=CC(=O)N1CC2CCCCCCC21 (stereo not shown) [CA-098],0.01614,0.02562,0.01499,0.9446,0.0242,2.745,0.9287,0.00546,0.5929,0.8002,0.0205,3.196,0.08188,6.698,0.1716,4.766,0.1221,0.3481,0.008918,0.8872,"Rate constant with Cdk2 F80C (Cdk2(C177A, F80C)): 0.01519; Rate constant with Cdk2 S181C (Cdk2(S181C) (C177A)): 0.02273"
C=CC(=O)N(Cc1ccco1)Cc1cc2cc(C)ccc2o1 [CA-178],0.1415,0.1581,0.1507,0.9532,0.1507,0.2468,1.065,0.6107,1.581,5.546,0.8769,2.953,0.4669,3.356,0.5306,2.909,0.4599,1.616,0.2555,0.8912,"Rate constant with Cdk2 F80C (Cdk2(C177A, F80C)): 0.2499; Rate constant with Cdk2 S181C (Cdk2(S181C) (C177A)): 0.1409"
